Test results as given in patent US8017589B2, “Avermectin B1 and avermectin B1 monosaccharide derivatives having an alkoxymethyl substituent in the 4″-or 4′-position” (Syngenta Crop Protection LLC, priority 2002, dated 2011).

Columns and labels:
Assay type in all cases: in vivo
Plutella xylostella = test: Action against Plutella xylostella caterpillars (spray on young cabbage plants); conditions: 72 h, 12.5 ppm spray mixture, 10 caterpillars in the first stage, 3 days later, read-out: percentage reduction in population and percentage reduction in feeding damage (% activity)
Protocol: After the spray-coating has dried, the cabbage plants are populated with 10 caterpillars of Plutella xylostella in the first stage and placed in a plastics container. Evaluation is made 3 days later. The percentage reduction in population and the percentage reduction in feeding damage (% activity) are determined by comparing the number of dead caterpillars and the feeding damage on the treated plants with that on the untreated plants.

Spodoptera littoralis = test: Action against Spodoptera littoralis (foliar spray on young soybean plants); conditions: 72 h, 12.5 ppm spray mixture, 10 caterpillars in the first stage, 3 days later, read-out: percentage reduction in population and percentage reduction in feeding damage (% activity)
Protocol: 3 days later, the percentage reduction in population and the percentage reduction in feeding damage (% activity) are determined by comparing the number of dead caterpillars and the feeding damage on the treated plants with that on untreated plants.

Tetranychus urticae = test: Action against Tetranychus urticae (spray on young bean plants); conditions: 144 h, 12.5 ppm spray mixture, mixed population, 6 days at 25° C., read-out: percentage reduction in population (% activity)
Protocol: The plants are incubated for 6 days at 25° C. and subsequently evaluated. The percentage reduction in population (% activity) is determined by comparing the number of dead eggs, larvae and adults on the treated plants with that on untreated plants.

Row | SMILES | inhibition at 12.5 ppm (Plutella xylostella) [%] | inhibition at 12.5 ppm (Spodoptera littoralis) [%] | inhibition at 12.5 ppm (Tetranychus urticae) [%]
1 | CCC(C)[C@H]1O[C@]2(C=C[C@@H]1C)C[C@@H]1C[C@@H](C/C=C(\C)[C@@H](OC3C[C@H](OC)[C@@H](OC4C[C@H](OC)[C@H](OCOCCOC)[C@H](C)O4)[C@H](C)O3)C(C)/C=C/C=C3\CO[C@@H]4[C@H](O)C(C)=C[C@@H](C(=O)O1)[C@]34O)O2 (stereo partly drawn) [Compound 2.8, 4″-epi-O-(2-methoxyethoxymethyl)-Avermectin B1] | > 80 | – | –
2 | CCC(C)[C@H]1O[C@]2(C=C[C@@H]1C)C[C@@H]1C[C@@H](C/C=C(\C)[C@@H](OC3C[C@H](OC)[C@@H](OCOCCN)[C@H](C)O3)C(C)/C=C/C=C3\CO[C@@H]4[C@H](O)C(C)=C[C@@H](C(=O)O1)[C@]34O)O2 (stereo partly drawn) [Compound 3.19] | – | > 80 | > 80
